Measurements as given in patent publication US10793558B2, “Quinoline oxadiazoles as cytoprotective agents” (priority 2015, dated 2020).

Experiments:
CSM14.1 neuronal cells = test: Cell Survival Assay (thapsigargin-treated CSM14.1 neuronal cells, CELLTITER-GLO luminescence); type: cell-based; conditions: CSM14.1 cells, about 15 μM thapsigargin, overnight (about 16 to 24 hrs), 2 hrs preincubation
Method: CSM14.1 neuronal cells were maintained in Complete Medium at 32° C.; wherein the Complete Medium contained Dulbecco's modified eagle medium (DMEM) with 10% fetal bovine serum (FSB), 1% L-glutamine, 100 IU/mL penicillin, and 100 μg/mL streptomycin. […] Seeding was performed using a MultiDrop Combi reagent broadcaster. The plates were incubated overnight at 32° C. A test compound was prepared by 2-fold serial dilution in 100% DMSO using a BIOMEK® 2000 liquid handler (Beckman Coulter). A dose-response curve containing 10 concentrations of the test compound was obtained. Using a BIOMEK® FX liquid handler (Beckman Coulter), 2.5 μL of the test compound was transferred from the 100% DMSO serial dilution plate to an intermediate plate containing 47.5 μL of DMEM Assay Medium containing 2% FBS, 100 IU/mL penicillin, and 100 μg/mL streptomycin and mixed. […] The tissue culture media (4 μL) containing vehicle only was transferred manually to each control cell using a 16 channel electronic pipette. […] High luminescence indicates cell survival.

Ob/ob mice = test: Effect of a SERCA Agonist on the Level of Blood Glucose in Ob/ob mice; type: in vivo, mouse; conditions: 50 mg/kg i.p. once a day, 5 days, fasting glucose at baseline and 4 days after administration
Method: Ob/ob mice (10 weeks old, n=7) were intraperitoneally (i.p.) injected with 100 μL of a solution containing 0 (vehicle) or 50 mg/kg of a test compound once a day for a total of 5 days. Fasting glucose was measured at baseline and 4 days after the administration of the test compound. Glucose levels were measured in blood samples drawn from the tail vein using a handheld glucose sensor. Compound effects on blood glucose are shown in Table 5 where A represents a 10-20% reduction in blood glucose, B represents a 21-30% reduction in blood glucose, and C represents a greater than 30% reduction in blood glucose levels.

HEK293 cells; N2a cells = test: Cell Rescue Assay: Protection against Thapsigargin (TG)-induced Cell-death (ALAMARBLUE); type: cell-based, human (HEK293); mouse (N2a); conditions: compound 20 μM, 2 hrs before thapsigargin (15 μM for HEK293 cells and 1 μM for N2a cells), 24 hrs; cell line not given; read-out: Cell Survival %
Method: Protection against Thapsigargin (TG)-induced Cell-death. Human embryonic kidney (HEK293) cells were grown in Dulbecco's Modified Eagle's Medium (DMEM) with 10% FBS and 1% antibiotic antimycotic solution (ABAM). Mouse neuroblastoma (N2a) cells were grown in 1:1 DMEM:OPTI-MEM® with 5% FBS and 1% ABAM. All cells were grown in 10% CO2 in a humidified environment of the incubator. Cells grown in 96-well plates were exposed to a test compound (20 μM) for 2 hrs before addition of thapsigargin (15 μM for HEK293 cells and 1 μM for N2a cells) to induce ER stress. After incubation in cell-culture incubator for 24 hrs, ALAMARBLUE® regent (10% v/v) was added to the wells. Fluorescence reading was taken 2 hrs after the addition of the ALAMARBLUE® regent. Cell-viability was calculated as a percentage of relative fluorescence unit (RFU) compared to control. […] The biological results are summarized in Table 2, where each compound was tested at 20 μM and where A represents a viability greater than 50%, B represents a viability greather than 10% and less than 50%, C represents a value below 10%.

SERCA = test: Ca-ATPase Assay (NADH-linked, enzyme-coupled ATPase assay, microsomal preparations from HEK 293 cells); type: biochemical, human; conditions: pH 7.0, 5 mM ATP, relative to controls
Method: A Ca-ATPase assay was performed using microsomal preparations from HEK 293 cells at a series of calcium concentrations corresponding to the physiological range, relative to controls. The ATP hydrolysis rate was measured over a range of calcium concentrations in the presence of test compounds using an NADH-linked, enzyme-coupled ATPase assay adapted for 96-well microplates, with Vmax determined by fitting the ATPase calcium-dependence to the Hill function. Each well contained 2 μg or 7 μg of SR vesicles (optimized for skeletal or cardiac SR, respectively), 50 mM MOPS (pH 7.0), 100 mM KCl, 5 mM MgCl2, 1 mM EGTA, 0.2 mM NADH, 1 mM phosphoenol pyruvate, 5 IU pyruvate kinase, 5 IU lactate dehydrogenase, and 3.5 μg/mL A23187 (a calcium ionophore). CaCl2 was added to set free [Ca^2+] to the specific values. The assay was started upon addition of ATP at a final concentration of 5 mM, and read in a SpectraMax Plus microplate spectrophotometer. The results are summarized in Table 4, where A represents an increase in SERCA Vmax greater than 50% and B represents a value greater than 10% and less than 50%.

Row | Structure (SMILES) | EC50 (CSM14.1 neuronal cells) | Glucose level reduction (Ob/ob mice) | viability at 20 µM (HEK293 cells; N2a cells) | SERCA Vmax Increase (SERCA)
1 | Cc1ccc2cccc(-c3nc(-c4ccc(Cl)cc4)no3)c2n1 [Compound B4, 3-(4-Chlorophenyl)-5-(2-methylquinolin-8-yl)-1,2,4-oxadiazole] | < 1000 nM | C (a greater than 30% reduction in blood glucose levels) | > 50% | A (an increase in SERCA Vmax greater than 50%)
2 | Cc1ccc2cccc(-c3nc(-c4cc(Br)cs4)no3)c2n1 [Compound B3, 3-(4-Bromothienyl-2-yl)-5-(2-methylquinolin-8-yl)-1,2,4-oxadiazole] | 1000 to 10000 nM | A (a 10-20% reduction in blood glucose) | > 50% | –
3 | Cc1ccc2cccc(-c3nc(-c4ccc(Br)s4)no3)c2n1 [Compound B2, 3-(5-Bromothiophen-2-yl)-5-(2-methylquinolin-8-yl)-1,2,4-oxadiazole] | 1000 to 10000 nM | B (a 21-30% reduction in blood glucose) | 10 to 50% | –
4 | Cc1ccc2cccc(-c3nc(-c4ccc(OC(C)C)cc4)no3)c2n1 [Compound B1, 3-(4-Isopropoxyphenyl)-5-(2-methylquinolin-8-yl)-1,2,4-oxadiazole] | 1000 to 10000 nM | B (a 21-30% reduction in blood glucose) | 10 to 50% | –
